In US20150284385A1, “CERTAIN DIPEPTIDYL PEPTIDASE INHIBITORS” (SHANGHAI FOCHON PHARMACEUTICAL CO LTD, priority 2012, published 2015):
Where two headings read alike, the source gives them in different places. Each block holds one compound with its values, some of them ahead of it.

Assays:
Recombinant human DPP-IV = Recombinant human DPP-IV (Homo sapiens, UniProt P27487); test: DPP-IV assay in vitro (H-Ala-Pro-AFC fluorescence); format: biochemical; conditions: 30 min pre-incubation, H-Ala-Pro-AFC 50 μM
Experimental: DPP-IV Assay Solutions of test compounds in varying concentrations (10^−5 mol/L, 10^−6 mol/L, 10^−7 mol/L, 10^−8 mol/L, 10^−9 mol/L, 10^−10 mol/L, 10^−11 mol/L, and 10^−12 mol/L) were prepared in dimethyl sulfoxide (DMSO) and then diluted into assay buffer comprising: 10 mM Tris-HCl pH 8.0, 0.2 M NaCl, and 0.1% BSA. Recombinant human DPP-IV (7.8 ng/ml final concentration) was added to the dilutions and pre-incubated for 30 mins at room temperature before the reaction was initiated with H-Ala-Pro-AFC (50 μM final concentration). The total volume of the reaction mixture was 100 μl.
Inhibition constants (IC50) were calculated by GraphPad Prism.

DPP-4 = molecular target: T1, DPP-4 (Mus musculus, UniProt P28843); test: Plasma DPP-4 activity in mice after oral dosing; format: in vivo, ICR mice; conditions: read-out: DPP-4 Relative activity %; for activity at 1 mg/kg: oral 1 mg/kg; for activity at 3 mg/kg: mice plasma, oral 3 mg/kg
T1 construct: Blood sample was processed to obtain plasma; from tissue; host or cells: plasma of male ICR mice
Experimental: Some of the exemplary compounds were tested in mice to assess inhibition of DPP-4 activity via plasma DPP-4 activity. Male ICR mice (25-30 g) were used for this study. All the mice were fasted at least 3 hours before study. Mice (n=6/group) received vehicle or at least one of the exemplary compounds by oral gavage. The dosing solutions were 0.15 mg/ml for the 3 mg/kg. Dosing volume was 20 mL/kg of body weight for all doses. The vehicle was distilled water. […] Blood sample was processed to obtain plasma (2000 g, 5 min, 4° C.) within 15 min after sampling.
Plasma was collected and tested by fluoremetry. Before the testing, 80 mM MgCl2 buffer was added into the 5 uL serum samples and pre-incubation for 5 minutes at room temperature, then […] of 0.1 mM substrate Gly-Pro-AMC and 20 μL of buffer were added into them. The fluorescence of the mixture was measured every 3 minutes after mixing (excitation at 380 nm; emission at 460 nm). After 6 times of measurements, a time-fluorescence cure was obtained. The slope of the curve would be the activity of DPP-4 in serum. The DPP-4 activity before administration was 100%. The relative activity of DPP-4 in serum was calculated using the formula below:
Relative DPP-4activity=DPP-4activity after dosing/DPP-4activity before dosing×100%.

[1] = Table 4 Test 1, mice plasma, 1 h after dosing
[2] = Table 4 Test 1, mice plasma, 2 h after dosing
[3] = Table 4 Test 1, mice plasma, 4 h after dosing
[4] = Table 4 Test 1, mice plasma, 6 h after dosing
[5] = Table 4 Test 1, mice plasma, 9 h after dosing
[6] = Table 4 Test 2, mice plasma, 1 h after dosing
[7] = Table 4 Test 2, mice plasma, 2 h after dosing
[8] = Table 4 Test 2, mice plasma, 4 h after dosing
[9] = Table 4 Test 2, mice plasma, 6 h after dosing
[10] = Table 4 Test 2, mice plasma, 9 h after dosing
[11] = Table 3, mice plasma, 1 h after dosing
[12] = Table 3, mice plasma, 2 h after dosing
[13] = Table 3, mice plasma, 4 h after dosing
[14] = Table 3, mice plasma, 6 h after dosing
[15] = Table 3, mice plasma, 9 h after dosing
[16] = Table 3, mice plasma, 12 h after dosing
[17] = Table 3, mice plasma, 24 h after dosing
[18] = Table 4 Test 1, mice plasma, 12 h after dosing
[19] = Table 4 Test 1, mice plasma, 24 h after dosing
[20] = Table 4 Test 3, mice plasma, 1 h after dosing
[21] = Table 4 Test 3, mice plasma, 2 h after dosing
[22] = Table 4 Test 3, mice plasma, 4 h after dosing
[23] = Table 4 Test 3, mice plasma, 6 h after dosing
[24] = Table 4 Test 3, mice plasma, 9 h after dosing
[25] = Table 4 Test 3, mice plasma, 12 h after dosing
[26] = Table 4 Test 3, mice plasma, 24 h after dosing

Sequence of Recombinant human DPP-IV (P27487 whole entry): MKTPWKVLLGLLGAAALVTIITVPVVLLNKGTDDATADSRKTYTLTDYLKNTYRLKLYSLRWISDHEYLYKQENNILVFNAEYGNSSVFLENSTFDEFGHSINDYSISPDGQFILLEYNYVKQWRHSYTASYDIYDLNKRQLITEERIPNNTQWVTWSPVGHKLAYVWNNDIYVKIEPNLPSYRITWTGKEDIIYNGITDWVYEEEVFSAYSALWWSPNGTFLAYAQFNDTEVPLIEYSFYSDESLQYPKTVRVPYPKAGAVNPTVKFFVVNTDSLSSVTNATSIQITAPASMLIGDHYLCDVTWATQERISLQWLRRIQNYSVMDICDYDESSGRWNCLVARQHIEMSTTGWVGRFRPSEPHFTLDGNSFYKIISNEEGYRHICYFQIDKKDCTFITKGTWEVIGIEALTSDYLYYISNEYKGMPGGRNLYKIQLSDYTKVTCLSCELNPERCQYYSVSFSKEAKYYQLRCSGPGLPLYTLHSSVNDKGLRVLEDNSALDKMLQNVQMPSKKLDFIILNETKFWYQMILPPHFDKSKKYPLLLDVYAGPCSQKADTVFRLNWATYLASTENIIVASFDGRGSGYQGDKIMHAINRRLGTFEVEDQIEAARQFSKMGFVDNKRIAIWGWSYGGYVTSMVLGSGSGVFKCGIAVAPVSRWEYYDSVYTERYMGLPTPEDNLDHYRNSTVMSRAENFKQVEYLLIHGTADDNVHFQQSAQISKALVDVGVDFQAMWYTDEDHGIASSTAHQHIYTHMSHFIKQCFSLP
T1 sequence (P28843 37-760 limits assumed): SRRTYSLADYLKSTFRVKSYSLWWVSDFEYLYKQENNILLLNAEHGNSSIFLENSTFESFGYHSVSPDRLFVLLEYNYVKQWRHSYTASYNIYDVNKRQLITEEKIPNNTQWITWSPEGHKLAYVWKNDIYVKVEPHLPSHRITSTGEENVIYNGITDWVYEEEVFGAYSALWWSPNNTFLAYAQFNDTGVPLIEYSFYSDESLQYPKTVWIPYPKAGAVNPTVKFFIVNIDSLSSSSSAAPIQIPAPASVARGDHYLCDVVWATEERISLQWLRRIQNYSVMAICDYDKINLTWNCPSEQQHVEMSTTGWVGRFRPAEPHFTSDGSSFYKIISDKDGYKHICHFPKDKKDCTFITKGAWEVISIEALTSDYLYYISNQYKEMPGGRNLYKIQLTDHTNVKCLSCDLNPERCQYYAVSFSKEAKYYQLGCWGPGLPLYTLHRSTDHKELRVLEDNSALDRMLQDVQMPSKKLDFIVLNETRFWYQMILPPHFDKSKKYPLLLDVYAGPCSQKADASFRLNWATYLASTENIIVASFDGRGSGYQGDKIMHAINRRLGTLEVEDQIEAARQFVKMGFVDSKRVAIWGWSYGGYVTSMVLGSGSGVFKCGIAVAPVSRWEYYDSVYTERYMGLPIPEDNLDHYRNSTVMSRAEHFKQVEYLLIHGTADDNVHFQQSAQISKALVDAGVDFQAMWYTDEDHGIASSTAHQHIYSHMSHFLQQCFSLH

IC50 (Recombinant human DPP-IV): 1.9 nM
activity at 1 mg/kg (DPP-4; [1]): 16.9 ± 1.4%
activity at 1 mg/kg (DPP-4; [2]): 15.9 ± 1.9%
activity at 1 mg/kg (DPP-4; [3]): 15.7 ± 1%
activity at 1 mg/kg (DPP-4; [4]): 16 ± 1.2%
activity at 1 mg/kg (DPP-4; [5]): 19.5 ± 1.8%
SMILES: Cc1noc(-c2ccn3c4c(nc3c2)C[C@H](c2cc(F)c(F)cc2F)[C@@H](N)C4)n1 [Example 6, (7R,8S)-3-(3-Methyl-1,2,4-oxadiazol-5-yl)-7-(2,4,5-trifluorophenyl)-6,7,8,9-tetrahydrobenzo[4,5]imidazo[1,2-a]pyridin-8-amine]

IC50 (Recombinant human DPP-IV): 1.9 nM
activity at 1 mg/kg (DPP-4; [6]): 11.5 ± 1.8%
activity at 1 mg/kg (DPP-4; [7]): 9 ± 1.3%
activity at 1 mg/kg (DPP-4; [8]): 10.2 ± 1.8%
activity at 1 mg/kg (DPP-4; [9]): 10.4 ± 1.8%
activity at 1 mg/kg (DPP-4; [10]): 11.6 ± 1.6%
activity at 3 mg/kg (DPP-4; 1 h after dosing): 24.4 ± 2.8%
activity at 3 mg/kg (DPP-4; 2 h after dosing): 21.7 ± 1.7%
activity at 3 mg/kg (DPP-4; 3 h after dosing): 20.4 ± 2%
activity at 3 mg/kg (DPP-4; 5 h after dosing): 28.3 ± 2.3%
SMILES: Cc1nc(-c2ccn3c4c(nc3c2)C[C@H](c2cc(F)c(F)cc2F)[C@@H](N)C4)no1 [Example 4, (7R,8S)-3-(5-Methyl-1,2,4-oxadiazol-3-yl)-7-(2,4,5-trifluorophenyl)-6,7,8,9-tetrahydrobenzo[4,5]imidazo[1,2-a]pyridin-8-amine]

IC50 (Recombinant human DPP-IV): 2 nM
SMILES: Cn1ncnc1-c1ccn2c3c(nc2c1)C[C@H](c1cc(F)c(F)cc1F)[C@@H](N)C3 [Example 9, (7R,8S)-3-(1-Methyl-1H-1,2,4-triazol-5-yl)-7-(2,4,5-trifluorophenyl)-6,7,8,9-tetrahydrobenzo[4,5]imidazo[1,2-a]pyridine-8-amine]

IC50 (Recombinant human DPP-IV): 3 nM
activity at 1 mg/kg (DPP-4; [11]): 9 ± 1.4%
activity at 1 mg/kg (DPP-4; [12]): 11.5 ± 1.1%
activity at 1 mg/kg (DPP-4; [13]): 10.9 ± 2.8%
activity at 1 mg/kg (DPP-4; [14]): 11.5 ± 0.5%
activity at 1 mg/kg (DPP-4; [15]): 10 ± 1.3%
activity at 1 mg/kg (DPP-4; [16]): 11 ± 2%
activity at 1 mg/kg (DPP-4; [17]): 14.5 ± 2.2%
activity at 1 mg/kg (DPP-4; [1]): 9 ± 1.4%
activity at 1 mg/kg (DPP-4; [2]): 11.5 ± 1.1%
activity at 1 mg/kg (DPP-4; [3]): 10.9 ± 2.8%
activity at 1 mg/kg (DPP-4; [4]): 11.5 ± 0.5%
activity at 1 mg/kg (DPP-4; [5]): 10 ± 1.3%
activity at 1 mg/kg (DPP-4; [18]): 11 ± 2.2%
activity at 1 mg/kg (DPP-4; [19]): 14.5 ± 2.2%
SMILES: Cn1nnc(-c2ccn3c4c(nc3c2)C[C@H](c2cc(F)c(F)cc2F)[C@@H](N)C4)n1 [Example 11, (7R,8S)-3-(2-methyl-2H-tetrazol-5-yl)-7-(2,4,5-trifluorophenyl)-6,7,8,9-tetrahydrobenzo[4,5]imidazo[1,2-a]pyridin-8-amine]

activity at 1 mg/kg (DPP-4; [11]): 8.5 ± 2.2%
activity at 1 mg/kg (DPP-4; [12]): 5 ± 1.7%
activity at 1 mg/kg (DPP-4; [13]): 7 ± 2.7%
activity at 1 mg/kg (DPP-4; [14]): 4.4 ± 2.3%
activity at 1 mg/kg (DPP-4; [15]): 6.1 ± 1.7%
activity at 1 mg/kg (DPP-4; [16]): 8.5 ± 1.3%
activity at 1 mg/kg (DPP-4; [17]): 20.2 ± 0.6%
activity at 1 mg/kg (DPP-4; [20]): 8.5 ± 2.2%
activity at 1 mg/kg (DPP-4; [21]): 5 ± 1.7%
activity at 1 mg/kg (DPP-4; [22]): 7 ± 2.7%
activity at 1 mg/kg (DPP-4; [23]): 4.4 ± 2.3%
activity at 1 mg/kg (DPP-4; [24]): 6.1 ± 1.7%
activity at 1 mg/kg (DPP-4; [25]): 8.5 ± 1.3%
activity at 1 mg/kg (DPP-4; [26]): 20.2 ± 0.6%
SMILES: Cn1nc(-c2ccn3c4c(nc3c2)C[C@H](c2cc(F)c(F)cc2F)[C@@H](N)C4)oc1=O [Example 13, 5-((7R,8S)-8-Amino-7-(2,4,5-trifluorophenyl)-6,7,8,9-tetrahydrobenzo[4,5]imidazo[1,2-a]pyridin-3-yl)-3-methyl-1,3,4-oxadiazol-2(3H)-one]

IC50 (Recombinant human DPP-IV): 0.9 nM
SMILES: N[C@H]1Cc2c(nc3cc(-c4nc[nH]n4)ccn23)C[C@@H]1c1cc(F)c(F)cc1F [Example 7, (7R,8S)-3-(1H-1,2,4-Triazol-3-yl)-7-(2,4,5-trifluorophenyl)-6,7,8,9-tetrahydrobenzo[4,5]imidazo[1,2-a]pyridine-8-amine]

IC50 (Recombinant human DPP-IV): 1.7 nM
SMILES: Cc1n[nH]c(-c2ccn3c4c(nc3c2)C[C@H](c2cc(F)c(F)cc2F)[C@@H](N)C4)n1 [Example 8, (7R,8S)-3-(3-methyl-1H-1,2,4-Triazol-5-yl)-7-(2,4,5-trifluorophenyl)-6,7,8,9-tetrahydrobenzo[4,5]imidazo[1,2-a]pyridine-8-amine]

IC50 (Recombinant human DPP-IV): 0.6 nM
SMILES: N[C@H]1Cc2c(nc3cc(-c4nnn[nH]4)ccn23)C[C@@H]1c1cc(F)c(F)cc1F [Example 10, (7R,8S)-3-(1H-Tetrazol-5-yl)-7-(2,4,5-trifluorophenyl)-6,7,8,9-tetrahydrobenzo[4,5]imidazo[1,2-a]pyridin-8-amine]

activity at 1 mg/kg (DPP-4; [11]): 7.4 ± 1.2%
activity at 1 mg/kg (DPP-4; [12]): 7 ± 1.1%
activity at 1 mg/kg (DPP-4; [13]): 6.4 ± 1.9%
activity at 1 mg/kg (DPP-4; [14]): 10.5 ± 1.7%
activity at 1 mg/kg (DPP-4; [15]): 10.1 ± 1.2%
activity at 1 mg/kg (DPP-4; [16]): 15 ± 1.6%
activity at 1 mg/kg (DPP-4; [17]): 38.3 ± 5.6%
activity at 1 mg/kg (DPP-4; [20]): 7.4 ± 1.2%
activity at 1 mg/kg (DPP-4; [21]): 7 ± 1.1%
activity at 1 mg/kg (DPP-4; [22]): 6.4 ± 1.9%
activity at 1 mg/kg (DPP-4; [23]): 10.5 ± 1.7%
activity at 1 mg/kg (DPP-4; [24]): 10.1 ± 1.2%
activity at 1 mg/kg (DPP-4; [25]): 15 ± 1.6%
activity at 1 mg/kg (DPP-4; [26]): 38.3 ± 5.6%
SMILES: N[C@H]1Cc2c(nc3cc(-c4n[nH]c(=O)o4)ccn23)C[C@@H]1c1cc(F)c(F)cc1F [Example 12, 5-((7R,8S)-8-Amino-7-(2,4,5-trifluorophenyl)-6,7,8,9-tetrahydrobenzo[4,5]imidazo[1,2-a]pyridin-3-yl)-1,3,4-oxadiazol-2(3H)-one]

IC50 (Recombinant human DPP-IV): 1 nM
SMILES: N[C@H]1Cc2c(nc3cc(-c4ncno4)ccn23)C[C@@H]1c1cc(F)c(F)cc1F [Example 5, (7R,8S)-3-(1,2,4-Oxadiazol-5-yl)-7-(2,4,5-trifluorophenyl)-6,7,8,9-tetrahydrobenzo[4,5]imidazo[1,2-a]pyridine-8-amine]

activity at 1 mg/kg (DPP-4; [1]): 20.5 ± 3%
activity at 1 mg/kg (DPP-4; [2]): 18.1 ± 2.2%
activity at 1 mg/kg (DPP-4; [3]): 19.9 ± 2%
activity at 1 mg/kg (DPP-4; [4]): 25.3 ± 2%
activity at 1 mg/kg (DPP-4; [5]): 33.3 ± 1.5%
activity at 1 mg/kg (DPP-4; [18]): 49.5 ± 2.8%
activity at 1 mg/kg (DPP-4; [19]): 90.7 ± 3.2%
activity at 1 mg/kg (DPP-4; [6]): 15.5 ± 1.1%
activity at 1 mg/kg (DPP-4; [7]): 16.5 ± 2%
activity at 1 mg/kg (DPP-4; [8]): 14.9 ± 2.9%
activity at 1 mg/kg (DPP-4; [9]): 23.3 ± 3.8%
activity at 1 mg/kg (DPP-4; [10]): 34.5 ± 2.7%
activity at 1 mg/kg (DPP-4; Table 4 Test 2, mice plasma, 24 h after dosing): 91.1 ± 4.3%
activity at 1 mg/kg (DPP-4; [20]): 17.5 ± 1.4%
activity at 1 mg/kg (DPP-4; [21]): 17 ± 1.7%
activity at 1 mg/kg (DPP-4; [22]): 22 ± 2.1%
activity at 1 mg/kg (DPP-4; [23]): 33.2 ± 2.7%
activity at 1 mg/kg (DPP-4; [24]): 42.5 ± 2.2%
activity at 1 mg/kg (DPP-4; [25]): 58 ± 2.6%
activity at 1 mg/kg (DPP-4; [26]): 81.9 ± 7.4%
SMILES: NC(=O)c1ccn2c3c(nc2c1)C[C@H](c1cc(F)c(F)cc1F)[C@@H](N)C3 [Refference 1, (7R,8S)-8-amino-7-(2,4,5-trifluorophenyl)-6,7,8,9-tetrahydrobenzo[4,5]imidazo[1,2-a]pyridine-3-carboxamide, reference compound]
